Measured values: the supplement of paper PMC11061612

Legend:
AZD1390 = compound: CC(C)n1c(=O)n(C)c2cnc3cc(F)c(-c4ccc(OCCCN5CCCCC5)nc4)cc3c21 [AZD1390]; conditions: max 0.3 µM
In short: (§1)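 Viability was measured with CellTiter-Glo 2.0 luminescence after 72 hours of dosing at a final DMSO of typically 0.2%, and scaled between blank-well and DMSO-well means. Beforehand, cancer cell lines sat 24 hours at 37°C and 5% CO2 in 1536-well plates in 7.5 μl DMEM/F12 or RPMI with 10% FBS. A non-linear mixed effects model fitted two-parameter logistic curves to the dose responses. The single-agent IC50 comes from these fits.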

AZD5991 = compound: Cc1c2c(nn1C)CSCc1cc(n(C)n1)CSc1cc(c3ccccc3c1)OCCCc1c(C(=O)O)n(C)c3c-2c(Cl)ccc13 [AZD5991]; conditions: max 1 µM
In short: as §1

Alisertib = compound: COc1cc(Nc2ncc3c(n2)-c2ccc(Cl)cc2C(c2c(F)cccc2OC)=NC3)ccc1C(=O)O [Alisertib]; conditions: max 10 µM
In short: as §1

Lapatinib = compound: CS(=O)(=O)CCNCc1ccc(-c2ccc3ncnc(Nc4ccc(OCc5cccc(F)c5)c(Cl)c4)c3c2)o1 [Lapatinib]; conditions: max 10 µM
In short: as §1

AZD7648 = compound: Cc1cc2ncnn2cc1Nc1ncc2c(n1)n(C1CCOCC1)c(=O)n2C [AZD7648]; conditions: max 10 µM
In short: as §1

Savolitinib = compound: C[C@@H](c1ccc2nccn2c1)n1nnc2ncc(-c3cnn(C)c3)nc21 [Savolitinib]; conditions: max 1 µM
In short: as §1

AZD5153 = compound: COc1nnc2ccc(N3CCC(c4ccc(OCCN5CCN(C)C(=O)[C@H]5C)cc4)CC3)nn12 [AZD5153]; conditions: max 1 µM
In short: as §1

AZD2811 = compound: CCN(CCO)CCCOc1ccc2c(Nc3cc(CC(=O)Nc4cccc(F)c4)[nH]n3)ncnc2c1 [AZD2811]; conditions: max 1 µM
In short: as §1

AZD1775 = compound: C=CCn1c(=O)c2cnc(Nc3ccc(N4CCN(C)CC4)cc3)nc2n1-c1cccc(C(C)(C)O)n1 [AZD1775]; conditions: max 3 µM
In short: as §1

AZD0156 = compound: CN(C)CCCOc1ccc(-c2ccc3ncc4c(c3c2)n(C2CCOCC2)c(=O)n4C)cn1 [AZD0156]; conditions: max 3 µM
In short: as §1

Taselisib = compound: Cc1nc(-c2cn3c(n2)-c2ccc(-c4cnn(C(C)(C)C(N)=O)c4)cc2OCC3)n(C(C)C)n1 [Taselisib]; conditions: max 10 µM
In short: as §1

SG3199 = compound: CC1=CN2[C@@H](C1)C=NC3=CC(=C(C=C3C2=O)OC)OCCCCCOC4=C(C=C5C(=C4)N=C[C@@H]6CC(=CN6C5=O)C)OC [SG3199]; conditions: max 0.001 µM
In short: as §1

Dasatinib = compound: CC1=C(C(=CC=C1)Cl)NC(=O)C2=CN=C(S2)NC3=CC(=NC(=N3)C)N4CCN(CC4)CCO [Dasatinib]; conditions: max 2 µM
In short: as §1

Prexasertib = compound: COc1cccc(OCCCN)c1-c1cc(Nc2cnc(C#N)cn2)n[nH]1 [Prexasertib]; conditions: max 1 µM
In short: as §1

Olaparib = compound: O=C(c1cc(Cc2n[nH]c(=O)c3ccccc23)ccc1F)N1CCN(C(=O)C2CC2)CC1 [Olaparib]
In short: as §1

Crizotinib = compound: C[C@@H](Oc1cc(-c2cnn(C3CCNCC3)c2)cnc1N)c1c(Cl)ccc(F)c1Cl [Crizotinib]; conditions: max 10 µM
In short: as §1

AZD4320 = compound: CN(CC[C@H](CSC1=CC=CC=C1)NC2=C(C=C(C=C2)S(=O)(=O)NC(=O)C3=CC=C(C=C3)N4CCC(CC4)[C@H](C5=CC=CC=C5C6=CC=C(C=C6)Cl)O)S(=O)(=O)C(F)(F)F)CCO [AZD4320]; conditions: max 1 µM
In short: as §1

SN-38 = compound: CCc1c2c(nc3ccc(O)cc13)-c1cc3c(c(=O)n1C2)COC(=O)[C@]3(O)CC [SN-38]; conditions: max 0.3 µM
In short: as §1

Doxorubicin = compound: COc1cccc2c1C(=O)c1c(O)c3c(c(O)c1C2=O)C[C@@](O)(C(=O)CO)C[C@@H]3O[C@H]1C[C@H](N)[C@H](O)[C@H](C)O1 [Doxorubicin]; conditions: max 1 µM
In short: as §1

Venetoclax = compound: CC1(C)CCC(CN2CCN(c3ccc(C(=O)NS(=O)(=O)c4ccc(NCC5CCOCC5)c([N+](=O)[O-])c4)c(Oc4cnc5[nH]ccc5c4)c3)CC2)=C(c2ccc(Cl)cc2)C1 [Venetoclax]; conditions: max 1 µM
In short: as §1

Capivasertib = compound: C1CN(CCC1(C(=O)N[C@@H](CCO)C2=CC=C(C=C2)Cl)N)C3=NC=NC4=C3C=CN4 [Capivasertib]; conditions: max 10 µM
In short: as §1

Palbociclib = compound: CC(=O)c1c(C)c2cnc(Nc3ccc(N4CCNCC4)cn3)nc2n(C2CCCC2)c1=O [Palbociclib]; conditions: max 10 µM
In short: as §1

AZD6738 = compound: C[C@@H]1COCCN1C2=NC(=NC(=C2)C3(CC3)[S@](=N)(=O)C)C4=C5C=CNC5=NC=C4 [AZD6738]; conditions: max 10 µM
In short: as §1

AZD8186 = compound: C[C@@H](Nc1cc(F)cc(F)c1)c1cc(C(=O)N(C)C)cc2c(=O)cc(N3CCOCC3)oc12 [AZD8186]; conditions: max 3 µM
In short: as §1

Trametinib = compound: CC(=O)Nc1cccc(-n2c(=O)n(C3CC3)c(=O)c3c(Nc4ccc(I)cc4F)n(C)c(=O)c(C)c32)c1 [Trametinib]; conditions: max 1 µM
In short: as §1

Selumetinib = compound: Cn1cnc2c(F)c(Nc3ccc(Br)cc3Cl)c(C(=O)NOCCO)cc21 [Selumetinib]; conditions: max 10 µM
In short: as §1

Gefitinib = compound: COc1cc2ncnc(Nc3ccc(F)c(Cl)c3)c2cc1OCCCN1CCOCC1 [Gefitinib]; conditions: max 10 µM
In short: as §1

Row | Cell Line | IC50, cell viability 72 h (AZD1390) [nM] | IC50, cell viability 72 h (AZD5991) [nM] | IC50, cell viability 72 h (Alisertib) [nM] | IC50, cell viability 72 h (Lapatinib) [nM] | IC50, cell viability 72 h (AZD7648) [nM] | IC50, cell viability 72 h (Savolitinib) [nM] | IC50, cell viability 72 h (AZD5153) [nM] | IC50, cell viability 72 h (AZD2811) [nM] | IC50, cell viability 72 h (AZD1775) [nM] | IC50, cell viability 72 h (AZD0156) [nM] | IC50, cell viability 72 h (Taselisib) [nM] | IC50, cell viability 72 h (SG3199) [nM] | IC50, cell viability 72 h (Dasatinib) [nM] | IC50, cell viability 72 h (Prexasertib) [nM] | IC50, cell viability 72 h (Olaparib; max 10 µM) [nM] | IC50, cell viability 72 h (Crizotinib) [nM] | IC50, cell viability 72 h (AZD4320) [nM] | IC50, cell viability 72 h (SN-38) [nM] | IC50, cell viability 72 h (Doxorubicin) [nM] | IC50, cell viability 72 h (Venetoclax) [nM] | IC50, cell viability 72 h (Capivasertib) [nM] | IC50, cell viability 72 h (Palbociclib) [nM] | IC50, cell viability 72 h (AZD6738) [nM] | IC50, cell viability 72 h (AZD8186) [nM] | IC50, cell viability 72 h (Trametinib) [nM] | IC50, cell viability 72 h (Selumetinib) [nM] | IC50, cell viability 72 h (Gefitinib) [nM] | IC50, cell viability 72 h (Olaparib; max 3 µM) [nM]
1 | KLE (Endometrial Carcinoma) | > 300 | > 1000 | 9070 | > 10000 | > 10000 | > 1000 | 315 | > 1000 | 1800 | > 3000 | 2430 | > 1 | 186 | > 1000 | > 10000 | > 10000 | > 1000 | > 300 | > 1000 | > 1000 | > 10000 | > 10000 | > 10000 | > 3000 | > 1000 | > 10000 | > 10000 | 
2 | KP-2 (Pancreatic Carcinoma) | > 300 | > 1000 | > 10000 | > 10000 | > 10000 | > 1000 | > 1000 | > 1000 | > 3000 | > 3000 | > 10000 | > 1 | > 2000 | 867 | > 10000 | > 10000 | 238 | > 300 | > 1000 | > 1000 | > 10000 | > 10000 | > 10000 | > 3000 | 778 | 8020 | > 10000 | 
3 | NH-12 (Neuroblastoma) | > 300 | > 1000 | 68.8 | > 10000 | > 10000 | > 1000 | 625 | 509 |  | > 3000 | 1250 | > 1 | > 2000 | 17.3 | > 10000 | 3020 | 79.3 | 4.09 | 157 | 576 | > 10000 | > 10000 | 2370 | > 3000 | 105 | > 10000 | > 10000 | 
4 | U-87-MG (Glioblastoma) | > 300 | > 1000 | > 10000 | > 10000 | > 10000 | > 1000 | > 1000 | > 1000 | > 3000 | > 3000 | 2450 |  | > 2000 | > 1000 |  | > 10000 | > 1000 | 40.5 |  | > 1000 | > 10000 | > 10000 | > 10000 | 2450 | > 1000 | > 10000 | > 10000 | > 3000
